Data reported in patent US5672358A (priority 1995, dated 1997).
Entries after “also recorded” stand apart in the source; their conditions may differ.

Test: pH dependent solubility of drug or wax

COc1cc(Cc2cnc(N)nc2N)cc(OC)c1OC [trimethoprim]
solubility: more soluble at acidic pH values; also recorded: the solubility of the two drugs is pH dependent
